From patent US12552806B2, “Androgen receptor regulation by small molecule enantiomers” (University of Southern California, priority 2020, dated 2026)
Like-named read-outs stand apart in the source and are kept apart here.

Experiments:
AR T878A = target: T1, AR T878A (Homo sapiens, UniProt P10275, T878A); assay: cell-based; assay type: cell-based
T1 construct: LNCaP cells expressing AR T878A; endogenous in cells; host or cells: LNCaP-luc (LNCaP stably carrying the Cignal Lenti AR Reporter)
T1 sequence (P10275 1-920 T878A): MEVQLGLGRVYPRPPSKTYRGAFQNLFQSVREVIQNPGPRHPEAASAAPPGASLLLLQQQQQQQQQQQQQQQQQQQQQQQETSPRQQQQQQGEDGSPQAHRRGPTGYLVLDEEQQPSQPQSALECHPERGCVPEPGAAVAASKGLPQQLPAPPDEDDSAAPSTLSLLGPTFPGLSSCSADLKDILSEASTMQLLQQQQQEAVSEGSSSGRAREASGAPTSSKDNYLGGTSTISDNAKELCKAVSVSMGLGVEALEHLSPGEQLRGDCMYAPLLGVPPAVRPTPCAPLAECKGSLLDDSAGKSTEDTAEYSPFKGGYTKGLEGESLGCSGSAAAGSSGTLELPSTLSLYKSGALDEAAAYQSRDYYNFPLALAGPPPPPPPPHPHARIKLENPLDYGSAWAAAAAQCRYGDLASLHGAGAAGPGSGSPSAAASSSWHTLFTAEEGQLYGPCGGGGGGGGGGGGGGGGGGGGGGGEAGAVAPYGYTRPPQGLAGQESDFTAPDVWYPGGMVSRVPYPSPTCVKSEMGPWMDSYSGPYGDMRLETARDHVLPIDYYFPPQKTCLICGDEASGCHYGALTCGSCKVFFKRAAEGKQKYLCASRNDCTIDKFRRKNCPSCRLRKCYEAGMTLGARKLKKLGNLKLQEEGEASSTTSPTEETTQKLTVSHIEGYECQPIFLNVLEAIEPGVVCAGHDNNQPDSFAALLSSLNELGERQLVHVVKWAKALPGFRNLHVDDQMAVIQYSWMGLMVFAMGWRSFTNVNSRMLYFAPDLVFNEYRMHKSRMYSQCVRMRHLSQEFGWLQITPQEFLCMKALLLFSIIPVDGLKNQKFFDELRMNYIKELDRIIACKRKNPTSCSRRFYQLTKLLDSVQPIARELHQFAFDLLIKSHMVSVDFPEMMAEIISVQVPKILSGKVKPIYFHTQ
From the text: We generated a LNCaP cell line stably expressing luciferase controlled by androgen response elements (ARE-luciferase).
Cell Culture and Treatments. The LNCaP cell line were obtained from ATCC, cultured in RPMI1640 (Corning) supplemented with 10% heat-inactivated GemCell bovine serum (Gemini Bio-Products) and Penicillin-Streptomycin (Gemini Bio-Products). Cell lines stably expressing ARE-luciferase (LNCaP-luc) was generated using Cignal Lenti AR Reporter (Qiagen) and was continuously cultured with 500 ng/mL Puromycin (Gibco) for positive selection. Cells were maintained at 37° C. in a humidified incubator with 5% carbon dioxide. All cell lines were authenticated using NIST approved short tandem repeat (STR) DNA profiling performed by the University of Arizona Genetics Core and routinely tested negative for mycoplasma.
Luciferase assay. LNCaP-luc cells were seeded in clear flat bottom white polystyrene 96-well plates (Corning) at a density of 12,000 cells/well. […] Dose-response curves were fit using the delta method and t-distribution (n=1). Compounds are tested up to 10 μM.

AR = target: T2, AR (Rattus norvegicus, UniProt P15207); assay: AR binding, PolarScreen AR Competitor Assay (fluorescence polarization)
T2 construct: purchased Thermo Fisher Scientific
T2 sequence (P15207 646-902 limits assumed): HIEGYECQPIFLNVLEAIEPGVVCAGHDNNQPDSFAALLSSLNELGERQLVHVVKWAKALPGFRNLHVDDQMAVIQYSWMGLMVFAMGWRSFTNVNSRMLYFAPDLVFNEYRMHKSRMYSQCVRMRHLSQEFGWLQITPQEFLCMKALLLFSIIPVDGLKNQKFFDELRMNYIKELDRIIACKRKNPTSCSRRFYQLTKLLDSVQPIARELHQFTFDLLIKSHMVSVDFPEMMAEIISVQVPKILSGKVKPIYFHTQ
Procedure: AR Binding. Ligand binding was analyzed using the PolarScreen AR Competitor Assay Kit, Green, according to the manufacturer's instructions (Thermo Fisher Scientific). Fluorescence polarization was measured after a 4-h incubation using an EnVision 2103 Multilabel Plate Reader (PerkinElmer).

VCaP cells = assay: VCaP viability assay (CellTiter-Glo); assay type: cell-based; conditions: Homo sapiens, VCaP
Procedure: PC3 and VCaP cell lines were obtained from ATCC and cultured as recommended. Generation and culture of PC3 GFP-AR cells were described previously (14). ARE-luciferase cells were generated using Cignal Lenti AR Reporter (Qiagen). Cell lines were authenticated using NIST-approved short tandem repeat DNA profiling and tested negative for mycoplasma. Drug treatments were conducted after overnight culture in phenol red-free media supplemented with charcoal:dextran stripped FBS.
Luminometer Assays. For ARE-luciferase, luciferase substrate was added to lysed cells after 24-h treatment. For viability, cells were lysed with CellTiter-Glo 3D Cell Viability Assay (Promega) after 6 d of treatment. Measurements were performed in 96-well plates (Corning) using a GloMax 96 Microplate Luminometer (Promega).

Row | Compound | ED50 (AR T878A) | Emax (AR T878A) | binding to AR in vitro, in words (AR) | IC50 (AR; printed inside the ED50 cell of Table 2, read-out: IC50 (No binding)) [µM] | IC50 (VCaP cells) [µM] | AR agonism / antagonism in LNCaP ARE-luciferase, in words (AR T878A) | EC50 (AR T878A) [µM] | Emax (AR T878A; LNCaP) [%]
1 | 3-(4-acetylpiperazin-1-yl)-N-((3aR,4R,5R,7R,7aS)-2-(4-cyano-3-(trifluoromethyl)phenyl)-4,7-dimethyl-1,3-dioxooctahydro-1H-4,7-epoxyisoindol-5-yl)propenamide [EITM-1716] | No binding (IC50 > 5 μM) | No binding | did not bind AR | > 5 | – | – | – | –
2 | C[C@]12O[C@](C)(C[C@H]1NC(=O)c1c[nH]c3ccccc13)[C@H]1C(=O)N(c3ccc(C#N)c(C(F)(F)F)c3)C(=O)[C@H]12 [(R)-1720] | – | – | – | – | 0.16 | – | – | –
3 | CC(=O)c1cc(C(=O)N[C@@H]2C[C@@]3(C)O[C@]2(C)[C@@H]2C(=O)N(c4ccc(C#N)c(C(F)(F)F)c4)C(=O)[C@@H]23)n[nH]1 [EITM-1703, 5-acetyl-N-((3aR,4R,5R,7R,7aS)-2-(4-cyano-3-(trifluoromethyl)phenyl)-4,7-dimethyl-1,3-dioxooctahydro-1H-4,7-epoxyisoindol-5-yl)-1H-pyrazole-3-carboxamide] | – | – | – | – | – | robust antagonistic activities without notable agonism | 1.7 | 20
4 | CC(O)c1cc(C(=O)N[C@@H]2C[C@@]3(C)O[C@]2(C)[C@@H]2C(=O)N(c4ccc(C#N)c(C(F)(F)F)c4)C(=O)[C@@H]23)n[nH]1 (stereo partly drawn) [EITM-1704, N-((3aR,4R,5R,7R,7aS)-2-(4-cyano-3-(trifluoromethyl)phenyl)-4,7-dimethyl-1,3-dioxooctahydro-1H-4,7-epoxyisoindol-5-yl)-5-(1-hydroxyethyl)-1H-pyrazole-3-carboxamide] | – | – | – | – | – | robust antagonistic activities without notable agonism | 3.7 | 11
5 | CCS(=O)(=O)N[C@@H]1C[C@@]2(C)O[C@]1(C)[C@@H]1C(=O)N(c3ccc(C#N)c(C(F)(F)F)c3F)C(=O)[C@@H]12 [EITM-1705, N-((3aR,4R,5R,7R,7aS)-2-(4-cyano-2-fluoro-3-(trifluoromethyl)phenyl)-4,7-dimethyl-1,3-dioxooctahydro-1H-4,7-epoxyisoindol-5-yl)ethanesulfonamide] | agonist | agonist | – | – | – | displayed notable AR agonism | – | –
6 | C[C@]12O[C@](C)(C[C@H]1n1cc(CCO)nn1)[C@H]1C(=O)N(c3ccc(C#N)c(C(F)(F)F)c3)C(=O)[C@H]12 [EITM-1706, 4-((3aR,4R,5R,7R,7 aS)-5-(4-(2-hydroxyethyl)-1H-1,2,3-triazol-1-yl)-4,7-dimethyl-1,3-dioxooctahydro-2H-4,7-epoxyisoindol-2-yl)-2-(trifluoromethyl)benzonitrile] | No binding | No binding | did not bind to AR | – | – | – | – | –
7 | CCS(=O)(=O)Nc1ccc2c(c1)C(=O)N(c1ccc(C#N)c(C(F)(F)F)c1)C2=O [EITM-1708, N-(2-(4-cyano-3-(trifluoromethyl)phenyl)-1,3-dioxoisoindolin-5-yl)ethanesulfonamide] | No binding | No binding | did not bind to AR | – | – | – | – | –
8 | C[C@]12O[C@](C)(C[C@H]1NC(=O)c1n[nH]c3ccccc13)[C@H]1C(=O)N(c3ccc(C#N)c(C(F)(F)F)c3)C(=O)[C@H]12 [EITM-1709, N-((3aR,4R,5R,7R,7 aS)-2-(4-cyano-3-(trifluoromethyl)phenyl)-4,7-dimethyl-1,3-dioxooctahydro-1H-4,7-epoxyisoindol-5-yl)-1H-indazole-3-carboxamide] | – | – | appeared to accommodate | – | – | – | 0.328 | 1
9 | C[C@]12O[C@](C)(C[C@H]1NC(=O)c1cc(-c3cccs3)[nH]n1)[C@H]1C(=O)N(c3ccc(C#N)c(C(F)(F)F)c3)C(=O)[C@H]12 [EITM-1710, N-((3aR,4R,5R,7R,7aS)-2-(4-cyano-3-(trifluoromethyl)phenyl)-4,7-dimethyl-1,3-dioxooctahydro-1H-4,7-epoxyisoindol-5-yl)-5-(thiophen-2-yl)-1H-pyrazole-3-carboxamide] | – | – | appeared to accommodate | – | – | – | 2.43 | 8
10 | C[C@]12O[C@](C)(C[C@H]1NC(=O)c1cc(-c3ccco3)[nH]n1)[C@H]1C(=O)N(c3ccc(C#N)c(C(F)(F)F)c3)C(=O)[C@H]12 [EITM-1711, N-((3aR,4R,5R,7R,7 aS)-2-(4-cyano-3-(trifluoromethyl)phenyl)-4,7-dimethyl-1,3-dioxooctahydro-1H-4,7-epoxyisoindol-5-yl)-5-(furan-2-yl)-1H-pyrazole-3-carboxamide] | – | – | appeared to accommodate | – | – | – | 0.535 | 1
11 | Cc1c(N2C(=O)[C@@H]3[C@H](C2=O)[C@@]2(C)C[C@@H](NC(=O)c4cc(C(C)O)[nH]n4)[C@]3(C)O2)ccc(C#N)c1C(F)(F)F (stereo partly drawn) [EITM-1712, N-((3aR,4R,5R,7R,7 aS)-2-(4-cyano-2-methyl-3-(trifluoromethyl)phenyl)-4,7-dimethyl-1,3-dioxooctahydro-1H-4,7-epoxyisoindol-5-yl)-5-(1-hydroxyethyl)-1H-pyrazole-3-carboxamide] | – | – | – | – | – | pure antagonists | 2.13 | 38
12 | CC(=O)N1CCC(C(=O)N[C@@H]2C[C@@]3(C)O[C@]2(C)[C@@H]2C(=O)N(c4ccc(C#N)c(C(F)(F)F)c4)C(=O)[C@@H]23)CC1 [EITM-1717, 1-acetyl-N-((3aR,4R,5R,7R,7aS)-2-(4-cyano-3-(trifluoromethyl)phenyl)-4,7-dimethyl-1,3-dioxooctahydro-1H-4,7-epoxyisoindol-5-yl)piperidine-4-carboxamide] | No binding | No binding | did not bind AR | – | – | – | – | –
